Measured values: patent US9040545B2, “Heterocyclyl pyrazolopyrimidine analogues as selective JAK inhibitors” (Cellzome Limited, priority 2010, dated 2015)

What was measured:
[1] = molecular target: T1, Aurora A (Homo sapiens, UniProt O14965); assay: Kinobeads assay, Aurora A; type: binding; conditions: for IC50: lysate of pervanadate-treated Jurkat cells, read-out: Inhibition values (IC50) Aur A
T1 construct: cell lysates from Jurkat cells (ATCC TIB-152) used; endogenous in cells; host or cells: Jurkat cells (ATCC TIB-152), treated with pervanadate
T1 sequence (O14965 1-403): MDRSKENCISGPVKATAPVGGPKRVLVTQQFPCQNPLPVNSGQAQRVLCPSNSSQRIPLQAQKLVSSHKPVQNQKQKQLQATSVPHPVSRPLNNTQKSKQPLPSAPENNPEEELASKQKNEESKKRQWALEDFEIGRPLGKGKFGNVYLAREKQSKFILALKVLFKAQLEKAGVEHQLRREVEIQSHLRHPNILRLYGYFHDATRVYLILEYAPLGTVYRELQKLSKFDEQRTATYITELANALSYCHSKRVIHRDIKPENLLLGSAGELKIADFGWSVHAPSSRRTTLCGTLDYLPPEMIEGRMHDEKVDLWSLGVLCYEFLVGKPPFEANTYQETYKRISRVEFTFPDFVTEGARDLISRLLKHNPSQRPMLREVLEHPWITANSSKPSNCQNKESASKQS

[2] = molecular target: T2, Aurora B (Homo sapiens, UniProt Q96GD4); assay: Kinobeads assay, Aurora B; type: binding; conditions: for IC50: lysate of pervanadate-treated Jurkat cells, read-out: Inhibition values (IC50) Aur B
T2 construct: cell lysates from Jurkat cells (ATCC TIB-152) used; endogenous in cells; host or cells: Jurkat cells (ATCC TIB-152), treated with pervanadate
T2 sequence (Q96GD4 whole entry): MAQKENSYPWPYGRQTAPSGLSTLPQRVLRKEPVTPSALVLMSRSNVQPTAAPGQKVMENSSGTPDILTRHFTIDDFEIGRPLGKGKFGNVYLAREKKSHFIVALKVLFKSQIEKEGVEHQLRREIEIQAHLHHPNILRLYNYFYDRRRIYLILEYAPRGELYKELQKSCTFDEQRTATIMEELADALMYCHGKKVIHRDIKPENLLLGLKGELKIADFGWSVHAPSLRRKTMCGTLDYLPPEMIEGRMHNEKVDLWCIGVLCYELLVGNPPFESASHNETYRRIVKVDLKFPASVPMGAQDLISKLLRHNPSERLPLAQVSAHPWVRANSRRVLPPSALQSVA

Structure (SMILES)	JAK3/AurA Fold Selectivity [1]	IC50 [1]	JAK3/AurB Fold Selectivity [2]	IC50 [2]
CN(C)CCCn1cc(Nc2ncc3cnn(Cc4c(F)c(F)cc(N5CCOCC5)c4F)c3n2)cn1 [Example 42, N-(1-(3-(Dimethylamino)propyl)-1H-pyrazol-4-yl)-1-(2,3,6-trifluoro-5-morpholinobenzyl)-1H-pyrazolo[3,4-d]pyrimidin-6-amine]	>50 Fold	1000 to 10000 nM	10-50 Fold	100 to 1000 nM
OCCn1cc(Nc2ncc3cnn(Cc4cc(N5CCNCC5)cc(F)c4F)c3n2)cn1 [Example 78, 2-(4-((1-(2,3-Difluoro-5-(piperazin-1-yl)benzyl)-1H-pyrazolo[3,4-d]pyrimidin-6-yl)amino)-1H-pyrazol-1-yl)ethanol]	10-50 Fold	100 to 1000 nM	3-10 Fold	< 100 nM
CN(C)CCCn1cc(Nc2ncc3cnn(Cc4cccc(N5CCOCC5)c4F)c3n2)cn1 [Example 43, N-(1-(3-(Dimethylamino)propyl)-1H-pyrazol-4-yl)-1-(2-fluoro-3-morpholinobenzyl)-1H-pyrazolo[3,4-d]pyrimidin-6-amine]	>50 Fold	1000 to 10000 nM	>50 Fold	100 to 1000 nM
Cn1cc(Nc2ncc3cnn(Cc4cccc(N5CCNCC5)c4F)c3n2)cn1 [Example 67, 1-(2-Fluoro-3-(piperazin-1-yl)benzyl)-N-(1-methyl-1H-pyrazol-4-yl)-1H-pyrazolo[3,4-d]pyrimidin-6-amine]	>50 Fold	100 to 1000 nM	10-50 Fold	100 to 1000 nM

Continued, values first:

JAK3/AurA Fold Selectivity [1]	IC50 [1]	JAK3/AurB Fold Selectivity [2]	IC50 [2]	Structure (SMILES)
10-50 Fold	100 to 1000 nM	>50 Fold	1000 to 10000 nM	Cn1cc(Nc2ncc3cnn(Cc4cc(F)cc(C(=O)N5CCOCC5)c4)c3n2)cn1 [Example 79, (3-Fluoro-5-((6-((1-methyl-1H-pyrazol-4-yl)amino)-1H-pyrazolo[3,4-d]pyrimidin-1-yl)methyl)phenyl)(morpholino)methanone]
>50 Fold	100 to 1000 nM	>50 Fold	100 to 1000 nM	CN(C)CCCn1cc(Nc2ncc3cnn(Cc4cccc(N5CCOCC5=O)c4F)c3n2)cn1 [Example 50, 4-(3-((6-((1-(3-(Dimethylamino)propyl)-1H-pyrazol-4-yl)amino)-1H-pyrazolo[3,4-d]pyrimidin-1-yl)methyl)-2-fluorophenyl)morpholin-3-one]
